Test results as given in publication PMC4598813 (Scientific Reports, 2015).

Experiments:
[1] = system: PrP^Sc in ScN2a cells; format: cell-based, mouse
[2] = system: total PrP in ScN2a cells; format: cell-based, mouse
[3] = system: PrP^Sc formation; conditions: cited from earlier work
[4] = system: L2-2B1 cells; conditions: mouse
[5] = system: ScN2a cells; conditions: mouse

CCN(CC)CCCC(C)Nc1c2ccc(Cl)cc2nc2ccc(OC)cc12 (centres unmarked) [Quinacrine]
PrP^Sc level [1]: completely inhibited
total PrP level [2]: unaffected
optimal concentration found to inhibit PrP^Sc formation [3]: below 4 μM
concentration causing cytotoxicity [4]: above 2 μM
concentration causing cytotoxicity [5]: above 2 μM
